Test results taken from patent US12594293B2, “Use of 6-thio-dG to treat therapy-resistant telomerasepositive pediatric brain tumors” (The Board of Regents of The University of Texas System, priority 2018, dated 2026).

Tests used:
[1] = cited from earlier work
[2] = test system: MB004 tumors
Method: Mouse subcutaneous and orthotopic xenograft. Athymic Ncr-nu/nu female mice (6-7 weeks old) were subcutaneously injected with 10,000 MB004 cells. Mice were weighed and distributed in two groups (control and 6-thio-dG). After tumor-establishment (day 23-24 post-implantation) with an average volume of 100-200 mm3, mice were injected intraperitoneally (i.p) every 2 days with 6-thio-dG (2.5 mg/kg) or DMSO-PBS (vehicle) for 3-4 weeks until euthanization. Tumors were measured by slide calipers taking two longest tumor-diameters (length and width) perpendicular to each other and volumes were calculated by using the formula: (π/6)×d3, where d=mean diameter. For orthotopic xenograft, CCHMC-DIPG-1 luciferase-positive cells (10,000) were injected in the brain of NRG (NOD.Cg-Rag1tm1Mom Il2rgtm1Wjl/SzJ) mice. Briefly, mice were injected stereotactically with 2 μl medium containing 10,000 luciferase-positive cells. The coordinates for injection were 0.8-1 mm posterior to lambda suture and 3.5 mm deep, corresponding to the pons location in the brain. Tumors were visualized by luminescence using IVIS Spectrum CT in vivo imaging system (PerkinElmer). All animal procedures were approved by the Institutional Animal Care and Use Committee (IACUC) (protocol #IACUC2015-0066, CCHMC).
Immunohistochemistry. Formalin-fixed paraffin-embedded (FFPE) sections were deparaffinized in xylene followed by rehydration through a graded ethanol concentration series. Heat-induced antigen retrieval was performed by steaming slides for 20 minutes in 10 mM Citrate buffer (pH 6.0). […] Slides were washed with TBST (×3) and were treated with biotinylated anti-rabbit secondary antibody (1:500) and signal-amplified using ABC Kit (Vector Laboratories). Signal was visualized with DAB (Vector Laboratories) and counterstained with Harris Hematoxylin (Sigma). H & E staining was performed using hematoxylin-1 and eosin-Y (Thermo Scientific). Tissues were mounted with Permount (Fisher Scientific) and imaged by Nikon eclipse 80i microscope.
Tissue TIF assay. Tissue samples were pre-fixed with 4% PFA and were cryo-protected in 25% sucrose/PBS solution, then embedded in OCT freezing molds with Neg-50 (VWR) in acetone and dry ice followed by cryo-sectioning. Heat-induced antigen retrieval and Telomere-FISH was performed as described above. The samples were incubated in blocking solution (5% donkey serum, 0.3% Triton X-100 in TBS) for 30 minutes and treated with anti-53BP1 (rabbit 1:500; Novus Biologicals) for 1 hour at room temperature. After washing in TBST (×3), the samples were incubated with secondary antibody Alexa-Fluor 488-conjugated donkey anti-rabbit (1:400; Jackson ImmunoResearch), and washed in TBS (×3). The samples were embedded in mounting media with DAPI (Vector Laboratories H1200). Images were captured with 60× oil objective on Nikon Eclipse Ti confocal microscope.

[3] = test system: HFF cells; experiment: Apoptosis, cleaved caspase-3 (IF / immunoblot); type: cell-based, human; settings: 3 μM for 4 or 7 days
Method: (§1) Immunofluorescence and telomere FISH assay. Cells were fixed with 4% paraformaldehyde (PFA) for 15 minutes. Cells were then washed, permeabilized with 0.5% Triton-X-100 in PBS, blocked with 5% donkey serum and 0.3% Triton X-100 in TBS and incubated with primary antibodies against γH2A.X (1:500, rabbit), or cleaved caspase-3 (1:400, rabbit) (Cell Signaling); and/or TRF2 (1:200) (Mouse; NOVUS), as applicable, for overnight followed by TBST wash (×3) next day. Corresponding secondary antibodies were added (Alexa-Fluor 488- or 594-conjugated donkey anti-rabbit, or anti-mouse (1:500) (Jackson ImmunoResearch) for 1 hour and washed with TBS (×3) before mounting. For telomere-FISH, fixed and permeabilized cells were dehydrated with a graded ethanol concentration series, air-dried and covered with hybridization solution (70% formamide, 0.5% Blocking Reagent (Roche Diagnostics) diluted in 100 mM maleic acid and 150 mM sodium chloride, and 10 mM Tris (pH 7.5)) with 300 ng/mL PNA(CCCTAA)3-Cy3 (SEQ ID NO: 1) (Biosynthesis, USA), and denatured for 6 minutes at 84° C. followed by hybridization for at least two hours at room temperature. Cells were washed three times with 70% formamide and 10 mM Tris (pH 7.5) and three times with TBS. Finally, they were embedded with mounting media with DAPI (Vector Laboratories H1200).
(§2) Western blot. Western blot was performed as described previously (22). Antibodies used were against ATMS1981P (R & D Systems); ATM (SIGMA); ATR-T1989P (GeneTex); and ATR, CHK1-S345P, CHK1, CHK2-T68P, CHK2, Cleaved Caspase-3, and β-actin (Cell Signaling). Bands were visualized using ECL with Azurec500 imaging system (Azure Biosystems). Band intensities were quantified using ImageJ software (Ver. 1.49u, NIH, USA).

[4] = test system: HeLa cells; experiment: Apoptosis, cleaved caspase-3 (IF / immunoblot); type: cell-based, human; settings: 3 μM for 4 or 7 days
Method: as §1, §2

[5] = test system: HFF+hTERT cells; experiment: Apoptosis, cleaved caspase-3 (IF / immunoblot); type: cell-based, human; settings: 3 μM for 4 or 7 days
Method: as §1, §2

[6] = test system: HFF cells; experiment: Immunofluorescence and telomere FISH (TIF) assay; type: cell-based, human
Method: as §1

[7] = test system: HFF+hTERT cells; experiment: Immunofluorescence and telomere FISH (TIF) assay; type: cell-based, human
Method: as §1

[8] = test system: MB004 cells; experiment: Immunofluorescence and telomere FISH (TIF) assay; type: cell-based, human; settings: 3 μM 2 days, then 3 days continuous or discontinuous treatment
Method: as §1

[9] = test system: HFF + hTERT; experiment: Cell growth assay (viable cell count, trypan blue exclusion); type: cell-based, human; settings: Homo sapiens, 168 h; 6-thio-dG treatment for 7 days; HFF + hTERT
[10] = test system: CCHMC-DIPG-1 cells; experiment: Apoptosis, cleaved caspase-3; type: cell-based, human; settings: 3 μM for 4 or 7 days; data not shown
Method: as §1, with “Finally, they were embedded with mounting media with DAPI (Vector Laboratories H1200).” left out
(§3) Western blot. […] Band intensities were quantified using ImageJ software (Ver. 1.49u, NIH, USA).

[11] = test system: MB004 cells; experiment: Apoptosis, cleaved caspase-3; type: cell-based, human; settings: 3 μM for 4 or 7 days; data not shown
Method: as §1, with “Finally, they were embedded with mounting media with DAPI (Vector Laboratories H1200).” left out
as §3

[12] = test system: ATM and ATR signaling pathways in HFF cells; experiment: Western blot of ATR-T1989 and ATM-S1981 phosphorylation; type: cell-based, human; settings: 3 μM, day 1 to 3
Method: as §2

[13] = test system: ATM and ATR signaling pathways in HFF+hTERT cells; experiment: as above; type: cell-based, human; settings: 3 μM, day 1 to 3
Method: as §2

[14] = 2.5 mg/kg i.p. every 2 days for 3-4 weeks
[15] = 2.5 mg/kg i.p. every 2 days, vs untreated group

Compound: Nc1nc2c(ncn2[C@H]2C[C@H](O)[C@@H](CO)O2)c(=S)[nH]1 [6-thio-dG, 6-thio-2′-deoxyguanosine]
- animal deaths or weight loss ([1]; mice treated with 6-thio-dG, Mender et al.): no animal deaths or weight loss
- toxic effects on hematologic counts, liver and kidney functions ([1]; mouse, in vivo): did not cause any toxic effects
- in-tumor cells with at least 1-3 TIFs ([2]; 2.5 mg/kg i.p. every 2 days): More than 21%
- population of cells with 4-6 TIFs per cell ([2]; 2.5 mg/kg i.p. every 2 days): detected only in treated tumors
- treated mice with fast tumor growth [2, 14]: Two out of six
- treated mice with reduced or delayed tumor growth [2, 14]: Four out of six
- in-tumor apoptosis (cleaved caspase-3 IHC) ([2]; 2.5 mg/kg i.p. every 2 days, vs control group): significant increase in apoptosis
- apoptotic bodies (H & E) [2, 15]: increase in apoptotic bodies
- number of mitotic figures (H & E) [2, 15]: significant decrease
- probability of animal survival ([2]; upon reaching tumor volume of 1500 mm^3, vs vehicle group): significantly higher
- apoptosis (cleaved caspase-3) [3]: did not show any evidence of apoptosis
- cleaved caspase-3 signal (apoptosis) [4]: increase in cleaved caspase-3 signal
- apoptosis (cleaved caspase-3) [5]: did not show any evidence of apoptosis
- TIF formation (cells with TIFs) ([6]; 3 μM, after 2 or 5 days treatment): less than 3%
- TIFs after drug withdrawal ([6]; 3 days after drug withdrawal): completely disappeared
- cells TIF-positive ([7]; 3 μM 2 days, then 3 days after drug withdrawal): ~31%
- cells TIF-positive ([7]; 3 μM, 5 days continuous treatment): ~34%
- number of cells with TIFs ([7]; 3 μM, after two days): ~25%
- number of TIFs per cell and number of cells with TIFs ([7]; 3 μM, from day 1 to day 3): markedly increased
- TIF formation [8]: sustained TIF formation
- IC50 [9]: 0.179 µM
- cleaved caspase-3 signal (apoptosis) [10]: increase in cleaved caspase-3 signal
- cleaved caspase-3 signal (apoptosis) [11]: increase in cleaved caspase-3 signal
- ATR / ATM pathway activation [12]: activation of the ATR pathway
- ATR-T1989 and ATM-S1981 phosphorylation [13]: Both ATM and ATR signaling pathways were engaged
